# System: hepatic S9 enzymes
# Assay: In vitro metabolism of progesterone by hepatic S9
# Type: in vitro ADME, dog
# Settings: after one hour with ovarian S9, hepatic S9 added
row,Compound,change of 17α-OHP when hepatic S9 were added
1,"CC(=O)[C@@]1(O)CC[C@H]2[C@@H]3CCC4=CC(=O)CC[C@]4(C)[C@H]3CC[C@@]21C [17α-OHP, 17α-hydroxyprogesterone]",decreased significantly

# Same assay, conditions: dog, 50 µg/mL
row,Compound,hydroxyprogesterones produced from progesterone
1,"CC(=O)[C@H]1CC[C@H]2[C@@H]3CCC4=CC(=O)CC[C@]4(C)[C@H]3CC[C@]12C [progesterone, pregn-4-ene-3,20-dione]","higher amounts of 6α-, 6β- and 16α-hydroxyprogesterones were detected"

# System: Monoclonal mouse 5α-PtG antibody
# Assay: Cross-reactivity of monoclonal 5α-PtG antibody (enzyme immunoassay)
# Type: binding
# Settings: monoclonal mouse 5α-PtG antibody raised against 5α-PtG-KLH
# Procedure: Monoclonal mouse 5α-PtG antibody was raised against the 5α-PtG-KLH by Thermo Fisher Scientific (Rockford, TL, USA). The antibodies were screened against the 5α-PtG-BSA. Cross-reactivities for the antibody were: 100% 5α-pregnane-3β,6α,20β-triol glucuronide, 25.4% 5α-pregnane-3β,6α,20β-triol, 0.5% 5β-pregnane-3α,20β-diol and 0.5% 5α-pregnane-3β,6α-diol-20-one.
# The 96 well polystyrene, certified MaxiSorp® plates were coated with antigen (5α-PtG-cBSA) by adding 100 μl of 0.25 μg/ml antigen in coating buffer (0.01 M sodium bicarbonate, pH 9.5) in each well. The plates were covered with plastic sticker to prevent evaporation, protected from light and incubated at room temperature over night or several nights at +4° C. The wells were emptied and washed once with 250 μl general washing buffer (e.g. PBS with 0.05% Tween 20 (PBST)), filled with 200 μl blocking buffer (5% sucrose and 0.5% BSA in PBST (w/V)), covered and incubated at +37° C. for a half an hour. The plates were poured empty and dried for three hours at +37° C. Dried plates were covered with plastic sticker, packed in re-sealable plastic bags with silica beads and stored at +4° C. until use.
# The hormone assays were performed from the individual samples collected in different oestrus cycle phases and from the urine sample series from 60 bitches. The 5α-PtG-cBSA coated plates were washed once with 250 μl of PBST. The urine samples were diluted 1:20 in assay buffer (0.2% BSA (w/V) in PBS with 0.01% Triton-X) and added in sample wells (50 μl). A dilution series of standard was prepared by diluting the 5α-PtG in assay buffer and added to standard wells (50 μl; 1200-1.6 nM). Assay buffer without additives was added to two wells to determine the maximum binding capacity (B0) and 1900 nM 5α-PtG control was diluted 1:20 in assay buffer and used as a recovery control in all assays. All samples and standards were measured as two replicates. The stock dilution of monoclonal mouse 5α-PtG antibody (1:100) was further diluted 1:100 in assay buffer and added 50 μl in each well. The plate was covered and incubated at +37° C. for half an hour, followed by washing the plate three times. Horseradish peroxidase labeled secondary antibody (goat anti-mouse IgG HRP) was diluted in 1:20 000 in 0.5% BSA (w/V) in PBST, added 100 μl per well and incubated half an hour at +37° C. After washing the plate three times with PBST, TMB in DMSO solution (0.5% 3,3′,5,5′-tetramethylbenzidine in dimethylsulfoxide (w/V; TCIAT1023 Tokyo Chemical Industry)) was diluted 1:50 in substrate buffer (0.1 M sodium acetate trihydrate, 1.5 mM citric acid monohydrate, 0.005% hydrogen peroxide (30%)), added in each well (100 μl) and incubated at room temperature 30 minutes. The reaction was stopped by adding 50 μl 1 M sulfuric acid to each well. The absorbance was measured at 450 nm by microplate reader (Hidex Sense).
row,Compound,Cross-reactivities for the antibody
1,"C[C@@H](O)[C@H]1CC[C@H]2[C@@H]3C[C@H](O[C@@H]4O[C@H](C(=O)O)[C@@H](O)[C@H](O)[C@H]4O)[C@H]4C[C@@H](O)CC[C@]4(C)[C@H]3CC[C@]12C [5α-PtG, 5α-pregnane-3β,6α,20β-triol-6-O-β-D-glucuronide]",100%
2,"C[C@H](O)[C@H]1CC[C@H]2[C@@H]3C[C@H](O)[C@H]4C[C@@H](O)CC[C@]4(C)[C@H]3CC[C@]12C [5α-pregnane-3β,6α,20α-triol]",No cross-reactivities
3,"C[C@@H](O)[C@H]1CC[C@H]2[C@@H]3C[C@H](O)[C@H]4C[C@@H](O)CC[C@]4(C)[C@H]3CC[C@]12C [5α-pregnane-3β,6α,20β-triol]",25.4%
4,"CC(=O)[C@H]1CC[C@H]2[C@@H]3C[C@H](O)[C@H]4C[C@@H](O)CC[C@]4(C)[C@H]3CC[C@]12C [5α-pregnane-3β,6α-diol-20-one]",0.5%
5,"C[C@@H](O)[C@@]1(O)CCC2C3CC[C@H]4C[C@@H](O)CC[C@]4(C)C3CC[C@@]21C (stereo partly drawn) [5α-pregnane-3β,17α,20β-triol]",No cross-reactivities
6,"C[C@H](O)[C@@]1(O)CC[C@H]2[C@@H]3CC[C@@H]4C[C@H](O)CC[C@]4(C)[C@H]3CC[C@@]21C [5β-pregnane-3α,17α,20α-triol]",No cross-reactivities
7,"CC(O)C1(O)CCC2C3CCC4CC(O)CCC4(C)C3CCC21C (stereo not drawn) [5β-pregnane-3α,17α,20β-triol]",No cross-reactivities
8,"C[C@H](O)[C@H]1CC[C@H]2[C@@H]3CC[C@@H]4C[C@H](O)CC[C@]4(C)[C@H]3CC[C@]12C [5β-pregnane-3α,20α-diol]",No cross-reactivities
9,"C[C@@H](O)[C@H]1CC[C@H]2[C@@H]3CC[C@@H]4C[C@H](O)CC[C@]4(C)[C@H]3CC[C@]12C [5β-pregnane-3α,20β-diol]",0.5%
10,"C[C@H](O)[C@H]1CC[C@H]2[C@@H]3CC[C@@H]4C[C@H](O[C@@H]5O[C@H](C(=O)O)[C@@H](O)[C@H](O)[C@H]5O)CC[C@]4(C)[C@H]3CC[C@]12C [PdG, 5β-pregnane-3α,20α-diol-3-glucuronide]",No cross-reactivities
11,"CC(=O)[C@H]1CC[C@H]2[C@@H]3CCC4=CC(=O)CC[C@]4(C)[C@H]3CC[C@]12C [progesterone, pregn-4-ene-3,20-dione]",No cross-reactivities

# Reference: patent publication US20260276660A1, “DETERMINATION OF PROGESTOGENS NON-INVASIVELY IN ANIMALS” (Vetcare Oy, priority 2023, published 2026)
